Measured values from paper PMC8899577, “Targeting the anti-apoptotic Bcl-2 family proteins: machine learning virtual screening and biological evaluation of new small molecules” (Theranostics, 2022).

What was measured:
[1] = tested on: MDA-MB-231 breast carcinoma cells; assay: Cell viability by MTT, MDA-MB-231; format: cell-based, Human; settings: 20 µM for 72 h, vs control
Method: (§1) The effect of compounds on cell viability was performed by measuring 3-[4,5-dimethylthiazol-2-yl]-2,5-diphenyltetrazolium bromide inner salt (MTT, Sigma-Aldrich) dye absorbance (solid tumor cells) or by quantization of ATP present in metabolically active cells using CellTiter-Glo® Luminescent (Promega, Fitchburg, Wisconsin, USA) (hematologic cells) following manifacturer's protocol. To evaluate the cell colony-forming ability, cell suspension from different samples was seeded into 60-mm Petri dishes. After 10 days, colonies were stained with 2% methylene blue in 95% ethanol and counted (1 colony > 50 cells). The surviving fractions were calculated as the ratio of absolute survival of the treated sample/survival of DMSO-treated control sample.
(§2) Figure 4 Analysis of the effect of IS20 and IS21 on cell viability, clonogenic ability and tumor sphere formation in cancer cells. […] (B) Representative images and quantification of clonogenic ability evaluated in M14 and H1299 cells treated with IS20 or IS21 (20 μM for 72 h). […] (C) Quantification of tumor sphere formation of M14 and H1299 cells treated with IS20 or IS21 (20 μM for 72 h). […] (A-C) Data are reported as mean ± SD of three independent experiments. p-values were calculated between control (Ctrl) and treated cells, ** p < 0.001 and *** p < 0.0001.

[2] = tested on: M14 cells; assay: Western blot of PARP1 cleavage, M14; format: cell-based, Human; settings: 72 h
Method: (§3) Western blot analyses of total protein extracts were performed as previously described. Immunodetection was performed using antibodies directed to poly (ADP-ribose) polymerase (PARP; BD Biosciences San Diego, CA, USA), LC3B (Cell Signaling Technology, Danvers, MA), HSP72/73 (Calbiochem, EMD Biosciences, La Jolla, CA), Bcl-2 (SC-509, Santa Cruz Biotechnology Inc, Dallas, TX, USA), Bcl-xL (SC-271121, Santa Cruz Biotechnology Inc), Mcl-1 (SC-12756, Santa Cruz Biotechnology Inc) α-tubulin (Santa Cruz Biotechnology Inc) actin (Sigma-Aldrich, St. Louis, Missouri, USA). Anti-rabbit or anti-mouse immunoglobulin G-horseradish peroxidase-conjugated antibodies (Amersham Biosciences, Freiburg, Germany) were used as secondary antibody. Images were acquired by Image Lab Software (Bio-Rad, Hercules, CA, USA), using a ChemiDoc System instrument (Bio-Rad). The densitometric evaluation was performed using Image J software and normalized with relative controls.
Figure 5 Analysis of apoptosis induction by IS20 and IS21 in leukemia, melanoma and NSCLC cells. […] (A-F) Reported images are representative of two independent experiments with similar results. HSP72/73 or α-Tubulin are shown as loading and transferring control. (G) Flow cytometric quantification of cells in the subG1 peak of cell cycle distribution by propidium iodide staining in HL60 cell line treated with IS20 or IS21 (20 μM for 24 h) and in M14, H1299 and MDA-MB-231 cell lines treated with IS20 or IS21 (20 μM for 72 h). Data are reported as mean ± SD of three independent experiments. p-values were calculated between control (Ctrl) and treated cells, * p < 0.05. (H) Flow cytometric quantification of cells in the subG1 peak by propidium iodide staining in M14 and H1299 cell lines treated with IS20 or IS21 (20 μM, 72 h) in presence or absence of the pan caspase inhibitor z-VAD (50 μM). p-values were calculated between treated control (Ctrl) cells, # p < 0.01, ## p < 0.001 or between cells treated with IS20 or IS21 alone or in combination with z-VAD, * p < 0.05, ** p < 0.005. (G-H) Data are reported as mean of two (H) or three (G) experiments ± SD.

[3] = tested on: U937 cells; assay: Western blot of LC3B-I/LC3B-II (autophagy), U937; format: cell-based, Human; settings: 20 µM for 24 h
[4] = tested on: U937 cells; assay: Western blot of PARP1 cleavage, U937; format: cell-based, Human; settings: 20 µM for 24 h
Method: as §3, with “The densitometric evaluation was performed using Image J software and normalized with relative controls.” left out
(§4) Figure 5 Analysis of apoptosis induction by IS20 and IS21 in leukemia, melanoma and NSCLC cells. […] (G) Flow cytometric quantification of cells in the subG1 peak of cell cycle distribution by propidium iodide staining in HL60 cell line treated with IS20 or IS21 (20 μM for 24 h) and in M14, H1299 and MDA-MB-231 cell lines treated with IS20 or IS21 (20 μM for 72 h). Data are reported as mean ± SD of three independent experiments. p-values were calculated between control (Ctrl) and treated cells, * p < 0.05. […]

[5] = tested on: HL60 cells; assay: Western blot of PARP1 cleavage, HL60; format: cell-based, Human; settings: 20 µM for 24 h
Method: as §3, with “The densitometric evaluation was performed using Image J software and normalized with relative controls.” left out
as §4

[6] = biological target: Bcl-xL (Homo sapiens, UniProt Q07817); assay: SPR binding to immobilized Bcl-xL; settings: 25 °C, 2-site fit, highest affinity site
Method: FastStep experiments were performed with a SensiQ Pioneer apparatus. Bcl-2 immobilization on COOH5 sensorchips was carried out essentially as previously reported, [40]. All the experiments were carried out at 25 °C in degassed HEPES 20 mM, pH 7.4, NaCl 150 mM, 0.005% surfactant P20 + 2% DMSO (HBSP2%D). […] Each sensorgram is the average of at least three experiments. The decrease in Response Units (RU) after 165 s indicates analyte dissociation from the immobilized Bcl-2 upon HSBP2%D buffer injection. Control SPR experiments were carried out measuring sensorgrams on Bcl-xL and Mcl-1 (ligands) immobilized on COOH5 sensorchips as previously reported at 25 °C in degassed HBSP2%D buffer. […] Each sensorgram is the average of at least three experiments. The decrease in RU after 180 s indicates analyte dissociation from the immobilized ligands upon HSBP2%D buffer injection. Kinetic evaluation of the sensorgrams was carried out using the Qdat 4.0 program; best fittings were obtained with 2 sites and indicated in red (reported KD values refer to dissociation constants of the highest affinity site).
Each sensorgram is the average of at least three experiments.

[7] = tested on: M14 melanoma cells; assay: Cell viability by MTT, M14; format: cell-based, Human; settings: for cell viability M14: 20 µM for 72 h, vs control; for IC50: Homo sapiens, M14, 72 h, MTT
Method: as §1
Figure 1 Cytotoxic screening of putative inhibitors of Bcl-2 anti-apoptotic proteins. (A) Flow cytometric quantification of propidium iodide exclusion assay in HL60 cells treated with the 49 putative Bcl-2 family inhibitors (50 μM, 72 h). (B) Analysis of cell viability by CellTiterGlo assay in HL60 cells treated for 24 h with concentrations ranging from 5 to 50 μM of the indicated compounds. (C-D) Analysis of cell viability by MTT assay in (C) M14 and (D) Sbcl2 melanoma cell lines treated for 72 h with concentrations ranging from 5 to 50 μM of the indicated compounds. (A-D) The results are reported as “viability of treated cells/viability of control cells (Ctrl)” × 100. Data are reported as mean of two (HL60) or three (M14 and Sbcl2) experiments ± SEM.
Figure 4 Analysis of the effect of IS20 and IS21 on cell viability, clonogenic ability and tumor sphere formation in cancer cells. (A) Analysis of cell viability by MTT assay in M14, H1299, HCT116 and MDA-MB-231 cell lines treated with IS20 or IS21 (20 μM for 72 h). The results are reported as “viability of treated cells/viability of control cells (Ctrl)” × 100. (B) Representative images and quantification of clonogenic ability evaluated in M14 and H1299 cells treated with IS20 or IS21 (20 μM for 72 h). Results are reported as percentage of clonogenicity of treated versus control cells. (C) Quantification of tumor sphere formation of M14 and H1299 cells treated with IS20 or IS21 (20 μM for 72 h). Results are reported as percentage of tumor sphere formation of treated versus control. (A-C) Data are reported as mean ± SD of three independent experiments. p-values were calculated between control (Ctrl) and treated cells, ** p < 0.001 and *** p < 0.0001.

[8] = tested on: M14 cells; assay: Clonogenic assay, M14; format: cell-based, Human; settings: 20 µM for 72 h, respect to controls
Method: as §1, §2

[9] = tested on: H1299 cells; assay: Western blot of PARP1 cleavage, H1299; format: cell-based, Human; settings: 72 h
Method: as §3, with “The densitometric evaluation was performed using Image J software and normalized with relative controls.” left out
as §4

Chain of Bcl-xL (Q07817 whole entry): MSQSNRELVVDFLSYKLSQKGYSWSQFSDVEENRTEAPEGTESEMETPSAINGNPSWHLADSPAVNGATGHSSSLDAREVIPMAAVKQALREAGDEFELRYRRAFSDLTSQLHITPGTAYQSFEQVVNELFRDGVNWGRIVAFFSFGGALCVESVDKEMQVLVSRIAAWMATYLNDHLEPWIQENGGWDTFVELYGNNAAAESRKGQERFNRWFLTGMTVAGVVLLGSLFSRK

SMILES | cell viability MDA-MB-231 [1] | PARP1 cleavage, M14 [2] | ratio of LC3B-II on LC3B-I, U937 [3] | PARP1 cleavage, U937 [4] | PARP1 cleavage, HL60 [5] | Kd [6] | cell viability M14 [7] | IC50 [7] | decrease of cell colony formation, M14 [8] | PARP1 cleavage, H1299 [9]
CCCCOc1ccc(C2/C(=C(\O)c3ccc4c(c3)CC(C)O4)C(=O)C(=O)N2c2nnc(SCc3ccc(Cl)cc3)s2)cc1OCC (centres unmarked) [IS20] | not significantly perturbed | cleavage of PARP1 | Increased ratio | cleavage of PARP1 | cleavage of PARP1 | 0.42 ± 0.09 µM | significant inhibition | 19.8 µM | 80-90% | cleavage of PARP1
CCCCCOc1ccc(C2/C(=C(\O)c3ccc4c(c3)CC(C)O4)C(=O)C(=O)N2c2nnc(SCc3ccc(Cl)cc3)s2)cc1OCC (centres unmarked) [IS21] | not significantly perturbed | cleavage of PARP1 | Increased ratio | cleavage of PARP1 | cleavage of PARP1 | 0.51 ± 0.17 µM | significant inhibition | 16.7 µM | 80-90% | cleavage of PARP1
